Data: patent US7008613B2, “Quaternary ammonium compounds” (Les Laboratoires Servier, priority 1999, dated 2006)

Assay: Tissue distribution study by measurement of radioactivity across whole-body sections
Type: in vivo, male Sprague-Dawley rats
Settings: for radioactivity bound by the kidney (elimination organ): first minutes following the injection; for tissue distribution of radioactivity: target organs/tissues: labelled molecule, rat whole-body sections
Experimental: Pharmacokinetic Study: Tissue Distribution Study
This study was carried out with molecules labelled with ^14C. The tissue distribution study was carried out by direct measurement of the radioactivity across whole-body sections in accordance with the following method: male Sprague-Dawley rats were administered intravenously or orally with a dose of the labelled molecule. Then, at times ranging from 5 minutes to 24 hours after the administration, the animals were sacrificed by ether inhalation and frozen in liquid nitrogen.
Sections were then prepared using a cryomicrotome and, after desiccation, the distribution of radioactivity was measured using an image analyser.

| SMILES | radioactivity bound by the kidney (elimination organ) | tissue distribution of radioactivity: target organs/tissues (after injection) | affinity for cartilage (administration of the labelled molecule by the oral route) | time of maximum binding to cartilage (after injection) | affinity of cartilage versus surrounding tissues (after injection of labelled molecule) |
| --- | --- | --- | --- | --- | --- |
| C[N+](C)(C)CC(=O)N[C@H]1C(O)O[C@H](CO)[C@@H](O)[C@@H]1O.[Cl-] (stereo partly drawn) [Example 4, 2-(N,N,N-trimethylammonioacetamido)-2-deoxy-α,β-D-glucopyranose chloride] | binds significant amounts of radioactivity | cartilage, and to a lesser degree skin, are the only targets |  |  |  |
| O=C(C[n+]1ccccc1)N[C@H]1C(O)O[C@H](CO)[C@@H](O)[C@@H]1O.[Cl-] (stereo partly drawn) [Example 5, 2-(Pyridinioacetamido)-2-deoxy-α,β-D-glucopyranose chloride] | binds significant amounts of radioactivity | cartilage, and to a lesser degree skin, are the only targets |  |  |  |
| CN1C(C(=O)NCCC[N+](C)(C)C)=C(O)c2ccccc2S1(=O)=O.[I-] [Example 6, {3-[(4-Hydroxy-2-methyl-1,1-dioxide-2H-1,2-benzothiazin-3-yl)-carboxamido]propyl}trimethylammonium iodide] |  |  | very high affinity for cartilage | 5 min | cartilage exhibits a far greater affinity than the surrounding tissues |
| N[C@H]1C(O)O[C@H](CO)[C@@H](O)[C@@H]1O (some centres unmarked) [glucosamine, reference compound] |  | the liver is the main target organ |  |  |  |
